Data as given in patent publication US7713994B2 (Wyeth LLC, priority 2005, dated 2010).
Read-outs that look alike come from different tables or passages of the source.

Experiments:
cyclin E/CDK2 enzyme = biological target: T1, cyclin E/CDK2 enzyme (Homo sapiens, UniProt P24941); assay: CDK2 ELISA kinase assay (phospho-Rb ser 795 detection); format: biochemical
T1 construct: made in house; host or cells: Sf9 insect cells, recombinant baculovirus
In short: (§1)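 GST-Rb C-terminal fragment coated on wells; kinase reaction: 200 μM ATP, 0.5 mg/ml BSA, HEPES pH 7.5, 10 mM MgCl2, baculovirus/Sf9 cyclin-CDK, 30° C, 1 h. Readout anti-phospho-Rb Ser795, HRP, TMB, A450. Test compound 10 ug/ml final.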

HCT-116 = assay: Cytotoxicity assay (SRB), HCT-116; format: cell-based; settings: HCT116 cells, SRB, read-out: In Vitro Cellular Activity IC50 HCT116
In short: (§2)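 Cells grown in RPMI 1640 with 5% FBS were treated with compound for three days (HCT-116, LoVo, MCF-7) or six days (BT474). Viable cell mass was quantified by sulforhodamine B staining of TCA-fixed protein and read at 540 nm.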

BT474 = assay: Cytotoxicity assay (SRB), BT474; format: cell-based
In short: as §2

LoVo = assay: Cytotoxicity assay (SRB), LoVo; format: cell-based; settings: LoVo cells, SRB, read-out: In Vitro Cellular Activity IC50 LOVO
In short: as §2

cyclin B/CDK1 enzyme = biological target: T2, cyclin B/CDK1 enzyme (Homo sapiens, UniProt P06493); assay: CDK1 ELISA kinase assay (phospho-Rb ser 795 detection); format: biochemical
T2 construct: purchased New England BioLabs; host or cells: Sf9 insect cells, recombinant baculovirus
In short: as §1

cyclin D1/cdk 4 enzyme = biological target: T3, cyclin D1/cdk 4 enzyme (Homo sapiens, UniProt P11802); assay: CDK4 ELISA kinase assay (phospho-Rb ser 795 detection); format: biochemical
T3 construct: made in house; host or cells: Sf9 insect cells, recombinant baculovirus
In short: as §1

MCF-7 = assay: Cytotoxicity assay (SRB), MCF-7; format: cell-based; settings: MCF-7 cells, SRB, read-out: In Vitro Cellular Activity IC50 MCF-7
In short: as §2

[1] = In Vitro Enzyme Assay, cyclin E/CDK2, read-out: CDK2 IC50
[2] = Homo sapiens, HCT-116, 72 h, 3 days
[3] = Homo sapiens, BT-474, 144 h, BT474 cells, 6 days, SRB; read-out: In Vitro Cellular Activity IC50 BT474
[4] = Homo sapiens, LoVo, 72 h, 3 days
[5] = In Vitro Enzyme Assay, cyclin B/CDK1, read-out: CDK1 IC50
[6] = In Vitro Enzyme Assay, cyclin D1/cdk 4, read-out: CDK4 IC50
[7] = Homo sapiens, MCF7, 72 h, 3 days
[8] = In Vitro Enzyme Assays, read-out: CDK2 IC50
[9] = In Vitro Enzyme Assays, read-out: CDK1 IC50
[10] = In Vitro Enzyme Assays, 200 μM ATP, read-out: CDK4 IC50
[11] = Homo sapiens, HCT-116, 72 h, three days
[12] = Homo sapiens, BT-474, 144 h, BT474 cells, SRB, 6 days; read-out: In Vitro Cellular Activity IC50 BT474
[13] = Homo sapiens, LoVo, 72 h, three days
[14] = Homo sapiens, MCF7, 72 h, three days

T2 sequence (P06493 whole entry): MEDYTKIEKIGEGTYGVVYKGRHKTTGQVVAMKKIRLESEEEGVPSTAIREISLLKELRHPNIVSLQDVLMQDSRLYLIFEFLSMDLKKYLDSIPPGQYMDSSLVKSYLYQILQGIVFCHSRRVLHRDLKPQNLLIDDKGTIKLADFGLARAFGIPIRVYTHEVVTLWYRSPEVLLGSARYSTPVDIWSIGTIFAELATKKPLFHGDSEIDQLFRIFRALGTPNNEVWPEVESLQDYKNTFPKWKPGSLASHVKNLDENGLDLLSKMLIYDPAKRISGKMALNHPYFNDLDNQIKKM
T2 sequence (P14635 whole entry partner): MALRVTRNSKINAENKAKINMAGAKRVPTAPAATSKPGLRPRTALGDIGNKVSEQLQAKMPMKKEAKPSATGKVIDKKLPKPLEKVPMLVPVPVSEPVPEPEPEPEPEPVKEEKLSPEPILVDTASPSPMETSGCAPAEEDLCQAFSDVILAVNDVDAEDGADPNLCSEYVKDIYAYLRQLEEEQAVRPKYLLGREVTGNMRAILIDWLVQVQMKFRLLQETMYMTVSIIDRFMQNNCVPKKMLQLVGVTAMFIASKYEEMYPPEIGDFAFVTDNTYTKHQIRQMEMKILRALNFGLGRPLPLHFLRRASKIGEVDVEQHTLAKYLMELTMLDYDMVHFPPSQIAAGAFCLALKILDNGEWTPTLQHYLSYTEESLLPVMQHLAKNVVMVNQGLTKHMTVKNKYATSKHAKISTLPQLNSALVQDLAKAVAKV
T3 sequence (P11802 whole entry, species assumed): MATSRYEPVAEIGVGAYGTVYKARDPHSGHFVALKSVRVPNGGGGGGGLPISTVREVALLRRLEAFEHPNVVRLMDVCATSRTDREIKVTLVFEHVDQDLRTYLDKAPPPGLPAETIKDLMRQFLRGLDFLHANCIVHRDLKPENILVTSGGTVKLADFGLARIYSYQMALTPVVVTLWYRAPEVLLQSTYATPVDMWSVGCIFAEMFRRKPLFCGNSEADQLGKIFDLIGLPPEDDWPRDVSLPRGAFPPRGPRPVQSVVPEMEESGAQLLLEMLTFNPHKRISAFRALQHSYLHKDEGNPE
T3 sequence (P24385 whole entry partner, species assumed): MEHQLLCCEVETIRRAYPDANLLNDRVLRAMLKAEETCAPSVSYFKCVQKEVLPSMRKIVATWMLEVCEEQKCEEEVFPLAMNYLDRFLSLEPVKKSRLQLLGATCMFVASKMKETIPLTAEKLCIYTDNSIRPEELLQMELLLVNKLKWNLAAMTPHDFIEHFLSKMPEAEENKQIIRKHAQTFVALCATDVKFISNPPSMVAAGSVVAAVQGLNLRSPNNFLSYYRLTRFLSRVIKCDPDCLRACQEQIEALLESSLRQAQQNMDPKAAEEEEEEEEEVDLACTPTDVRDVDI

| IC50 (cyclin E/CDK2 enzyme; [1]) [µM] | IC50 (cyclin B/CDK1 enzyme; [5]) [µM] | IC50 (cyclin D1/cdk 4 enzyme; [6]) [µM] | IC50 (cyclin E/CDK2 enzyme; [8]) [µM] | IC50 (cyclin B/CDK1 enzyme; [9]) [µM] | IC50 (cyclin D1/cdk 4 enzyme; [10]) [µM] | Molecule | IC50 (HCT-116; [2]) [µM] | IC50 (BT474; [3]) [µM] | IC50 (LoVo; [4]) [µM] | IC50 (MCF-7; [7]) [µM] | IC50 (HCT-116; [11]) [µM] | IC50 (BT474; [12]) [µM] | IC50 (LoVo; [13]) [µM] | IC50 (MCF-7; [14]) [µM] | other results |
| --- | --- | --- | --- | --- | --- | --- | --- | --- | --- | --- | --- | --- | --- | --- | --- |
| 8 | 38.8 | 1.48 |  |  |  | NS(=O)(=O)c1ccc(CNC=C2C(=O)NC(=O)c3ccc(-c4ccc(Cl)cc4)cc32)cc1 [Example 749, 4-({[6-(4-Chloro-phenyl)-1,3-dioxo-2,3-dihydro-1H-isoquinolin-4-ylidenemethyl]-amino}-methyl)-benzenesulfonamide] | 20.9 | > 50 | 47.2 | 14.1 |  |  |  |  |  |
|  |  |  | > 50 | > 50 | 5 | CN1CCC(N(C)CC2CCN(c3ccc(N/C=C4\C(=O)NC(=O)c5ccc(I)cc54)cc3)CC2)C1 (centres unmarked) [Example 455, (4Z)-6-Iodo-4-({[4-(4-{[methyl(1-methylpyrrolidin-3-yl)amino]methyl}piperidin-1-yl)phenyl]amino}methylene)isoquinoline-1,3(2H,4H)-dione] | 2.4 | 3.1 | 3.3 | 3.1 |  |  |  |  |  |
| > 50 | > 50 | 1.77 |  |  |  | CN1CCN(c2ccc(NC=C3C(=O)NC(=O)c4ccc(C=Cc5ccccn5)cc43)cc2)CC1 [Example 675, 4-{[4-(4-Methyl-piperazin-1-yl)-phenylamino]-methylene}-6-(2-pyridin-2-yl-vinyl)-4H-isoquinoline-1,3-dione] | 2.3 | 7.7 | 6.8 | 7.2 |  |  |  |  |  |
|  |  |  | 1.9 | 12.3 | 1.2 | CN(C)CCS(=O)(=O)c1ccc(N/C=C2\C(=O)NC(=O)c3ccc(Br)cc32)cc1 [Example 243] |  |  |  |  | 5 | 13 | 12 | 5 |  |
| > 50 | > 50 | 0.008 |  |  |  | O=C1NC(=O)c2ccc(I)cc2/C1=C/NCc1ccc(I)c(O)c1 [Example 504, 4-[(3-Hydroxy-4-iodo-benzylamino)-methylene]-6-iodo-4H-isoquinoline-1,3-dione] | 3.9 | 1 | 4.3 | 1.5 |  |  |  |  |  |
|  |  |  | 2.5 | 20.7 | 1.2 | CN1Cc2ccc(N/C=C3\C(=O)NC(=O)c4ccc(Br)cc43)cc2C1 [Example 259, (4Z)-6-Bromo-4-{[(2-methyl-2,3-dihydro-1H-isoindol-5-yl)amino]methylene}isoquinoline-1,3(2H,4H)-dione] |  |  |  |  | 2.5 | 6.8 | 3.9 | 5.5 |  |
| 32.4 | 19.3 | 0.21 |  |  |  | CN1CCN(c2ccc(N/C=C3\C(=O)NC(=O)c4ccc(-c5ccoc5)cc43)c(F)n2)CC1 [Example 498, (4Z)-4-({[2-Fluoro-6-(4-methylpiperazin-1-yl)pyridin-3-yl]amino}methylene)-6-(3-furyl)isoquinoline-1,3(2H,4H)-dione] |  |  |  |  |  |  |  |  | IC50 (HCT-116; 3 days): 1.1 µM; IC50 (BT474; BT474 cells, 6 days, SRB; read-out: In Vitro Cellular Activity IC50 BT474): 1 µM; IC50 (LoVo; 3 days): 1.6 µM; IC50 (MCF-7; 3 days): 3.5 µM |
|  |  |  | 5 | > 50 | 0.23 | CC(c1ccc(N/C=C2\C(=O)NC(=O)c3ccc(I)cc32)cc1)N1CCCC1 (centres unmarked) [Example 354, 6-Iodo-4-{[4-(1-pyrrolidin-1-yl-ethyl)-phenylamino]-methylene}-4H-isoquinoline-1,3-dione] |  |  |  |  | 4.8 | 8.6 | 3.5 | 0.94 |  |
| 18 | 37.1 | 1 |  |  |  | COc1cccc(CC=Cc2ccc3c(c2)C(=CNCc2ccc(O)c(O)c2)C(=O)NC3=O)c1O [Example 804, 4-[(3,4-Dihydroxy-benzylamino)-methylene]-6-[3-(2-hydroxy-3-methoxy-phenyl)-propenyl]-4H-isoquinoline-1,3-dione] | 6.1 | 9.7 | 12.4 | 9.8 |  |  |  |  |  |
|  |  |  | > 50 | > 50 | ~1.5 | PEG5000thio-acetic acid 5-{[(6-bromo-1,3-dioxo-2,3-dihydro-1H-isoquinolin-4-ylidenemethyl)-amino]-methyl}-2-propoxy-phenyl ester [Example 228] |  |  |  |  |  |  |  |  | IC50 (HCT-116; three days): ~2.1 µM; IC50 (BT474; BT474 cells, SRB, 6 days; read-out: In Vitro Cellular Activity IC50 BT474): ~1.2 µM; IC50 (LoVo; three days): ~2.5 µM; IC50 (MCF-7; three days): ~8.6 µM |
| 28.3 | > 50 | 0.13 |  |  |  | O=C1NC(=O)c2ccc(-c3ccc4c(c3)OCO4)cc2C1=CNCc1ccc(O)c(O)c1 [Example 812, 6-Benzo[1,3]dioxol-5-yl-4-[(3,4-dihydroxy-benzylamino)-methylene]-4H-isoquinoline-1,3-dione] | 44.7 | > 50 | > 50 | 49.8 |  |  |  |  |  |
|  |  |  | 6.3 | > 50 | 17.6 | O=C1NC(=O)c2ccc(Br)cc2/C1=C/Nc1ccc2c(c1)CCN2 [Example 214, (4Z)-6-Bromo-4-[(2,3-dihydro-1H-indol-5-ylamino)methylene]isoquinoline-1,3(2H,4H)-dione] |  |  |  |  | 39 | 6.8 | > 50 | 14 |  |
|  |  |  | 14.7 | > 50 | 0.006 | CCCOc1cnc(CNC=C2C(=O)NC(=O)c3ccc(-n4cccc4)cc32)cc1O [Example 363, 4-{[(4-Hydroxy-5-propoxy-pyridin-2-ylmethyl)-amino]-methylene}-6-pyrrol-1-yl-4H-isoquinoline-1,3-dione] |  |  |  |  | 3.2 | 1.5 | 2.3 | 2.4 |  |
|  |  |  | > 50 | > 50 | 0.05 | O=C1NC(=O)c2ccc(-c3ccsc3)cc2/C1=C/Nc1ccc(CN2CCCCC2)cc1 [Example 104, (4Z)-4-({[4-(Piperidin-1-ylmethyl)phenyl]amino}methylene)-6-thien-3-ylisoquinoline-1,3(2H,4H)-dione] |  |  |  |  | 1 | 3 | 1.3 | 3.4 |  |
|  |  |  | > 50 | > 50 | 0.14 | O=C1NC(=O)c2ccc(-c3ccc(Cl)s3)cc2/C1=C/Nc1ccc(CN2CCC[C@H]2CO)cc1 [Example 441, 6-(5-Chloro-thiophen-2-yl)-4-{[4-(2-hydroxymethyl-pyrrolidin-1-ylmethyl)-phenylamino]-methylene}-4H-isoquinoline-1,3-dione] | 1.1 | 3.2 | 2.9 | 2.3 |  |  |  |  |  |
| > 50 | > 50 | 0.31 |  |  |  | CN1CCN(c2ccc(NC=C3C(=O)NC(=O)c4ccc(-c5ccn(CCCC#N)c5)cc43)cc2)CC1 [Example 855, 4-[3-(4-{[4-(4-Methyl-piperazin-1-yl)-phenylamino]-methylene}-1,3-dioxo-1,2,3,4-tetrahydro-isoquinolin-6-yl)-pyrrol-1-yl]-butyronitrile] | > 50 | 43.3 | > 50 | 42.6 |  |  |  |  |  |
| > 50 | > 50 | 16.1 |  |  |  | O=C1NC(=O)c2ccc(I)cc2/C1=C/Nc1ccc(CN2CCS(=O)(=O)CC2)cc1 [Example 483, 4-{[4-(1,1-Dioxo-1-thiomorpholin-4-ylmethyl)-phenylamino]-methylene}-6-iodo-4H-isoquinoline-1,3-dione] | 13.1 | > 50 | > 50 | > 50 |  |  |  |  |  |
